Data: PMC8617031, “Development of a BCL-xL and BCL-2 dual degrader with improved anti-leukemic activity,” (Nature Communications, 2021)
Values joined by “and” are separate entries in the source; they are usually repeats but may differ in a detail not shown here. Equal values may be shown once.

Key:
[1] = biological target: T1, His-tagged BCL-2 (Homo sapiens, UniProt P10415); experiment: AlphaScreen competitive binary binding, BCL-2 (biotin-BIM peptide); settings: for binary binding affinity to BCL-2 (in words): AlphaScreen, Supplementary Fig. 6
T1 construct: purchased Sigma-Aldrich SRP0186
Experimental: The reagents were diluted in a buffer containing 250 mM HEPES pH 7.5, 1 M NaCl, 1% BSA, and 0.05% Tween-80. His-tagged BCL-xL (0.5 nM, Cat. No. SRP0187, Sigma-Aldrich) or BCL-2 (1 nM, Cat. No. SRP0186, Sigma-Aldrich) were incubated with serial diluted 753a or 753b and 2 nM biotin-tagged BAD (biotin-[…] amino-terminal, AnaSpec, for BCL-xL) or 10 nM BIM peptides (biotin-[…] N-terminal, AnaSpec, for BCL-2) to a final volume of 40 µl in a 96-well PCR plate. […] After incubation for 2 h, 5 µl 6× His-acceptor beads (Cat. No. AL128M, PerkinElmer) were added to each well at 20 µg/ml final concentration and incubated for 1 h. Then 5 µl streptavidin-donor beads were added (Cat. No. 6760002, PerkinElmer) to each well at 20 µg/ml final concentration and incubated for 45 min. At the end of the incubation period, 17 µl of each sample was transferred in adjacent wells of 384-well proxy plate (Cat. No. 6008280, PerkinElmer). The plate was scanned using the Alpha program on Biotek’s Synergy Neo2 multimode plate reader. The inhibition constant (Ki) was calculated using the non-linear regression, one site, competitive binding, Fit Ki function on GraphPad Prism 9 software, based on experimentally determined dissociation constant (Kd) for each protein–peptide pair.

[2] = system: Kasumi-1 cells; experiment: Viability (MTS) of Kasumi-1 AML cells; type: cell-based, human; settings: Kasumi, 24h, Fig. 7c
[3] = system: Hela cells; experiment: Viability (MTS) of Hela cells; type: cell-based, human; settings: for cell viability normalised to control wells (single replicate): in % (unit assumed)
Experimental: (§1) Suspension cells were treated 30 min after seeding, whereas adherent cells were allowed to adhere overnight and were then treated. Compound treatments were prepared in complete cell culture medium and 100 µl of 2× treatment-containing medium were added to each well. Complete cell culture medium without treatment was added in control wells, and wells containing medium without cells served as background. The outer wells of the 96-well plate were not used for treatment and were filled with 250 µl of PBS to reduce evaporation of medium from inner wells. Each compound and/or combination was tested at nine different concentrations with three replicates. The cell viability was measured after 72 h by tetrazolium-based MTS assay. MTS reagent (2 mg ml^–1 stock; cat. no. G1111, Promega) was freshly supplemented with phenazine methosulfate (PMS, 0.92 mg ml^–1 stock, cat. no. P9625, Sigma-Aldrich) in 20:1 ratio, and 20 µl of this mixture was added to each control and treatment well. The cells were incubated for 4 h at 37 °C and 5% CO2, and then the absorbance was recorded at 490 nm using Biotek’s Synergy Neo2 multimode plate reader (Biotek). The average absorbance value of background wells was subtracted from absorbance value of each control and treatment well, and percent cell viability ((At/A0) × 100)) was determined in each treatment well, where At is the absorbance value of the treatment well and A0 is the average absorbance value of control wells after background subtraction. The data were expressed as average percentage cell viability and fitted in non-linear regression curves using GraphPad Prism 7 (GraphPad Software, La Jolla, CA, USA).

[4] = system: 293T cells; experiment: Viability (MTS) of 293T cells; type: cell-based, human; settings: normalised to own plate; for 293T cell viability, MTS absorbance 490 as percent of untreated control, mean of three wells: mean of 3 wells
Experimental: as §1

[5] = BCL-2 Rep-2, plate row C, 1.25 uM
[6] = BCL-2 Rep-2, plate row D, 0.3125 uM
[7] = BCL-2 Rep-2, plate row E, 0.078125 uM
[8] = BCL-2 Rep-2, plate row F, 0.0195312 uM
[9] = BCL-2 Rep-2, plate row H, 0.0012207 uM
[10] = BCL-2 Rep-2, plate row I, 0.000305176 uM
[11] = BCL-2 Rep-2, plate row J, 7.62939e-5 uM
[12] = BCL-2 Rep-2, plate row K, 1.90735e-5 uM
[13] = MTS absorbance 490, Conc 0.00137174 uM
[14] = MTS absorbance 490, Conc 0.00411523 uM
[15] = MTS absorbance 490, Conc 0.037037 uM
[16] = MTS absorbance 490, Conc 0.111111 uM
[17] = MTS absorbance 490, Conc 0.333333 uM

T1 sequence (P10415 whole entry): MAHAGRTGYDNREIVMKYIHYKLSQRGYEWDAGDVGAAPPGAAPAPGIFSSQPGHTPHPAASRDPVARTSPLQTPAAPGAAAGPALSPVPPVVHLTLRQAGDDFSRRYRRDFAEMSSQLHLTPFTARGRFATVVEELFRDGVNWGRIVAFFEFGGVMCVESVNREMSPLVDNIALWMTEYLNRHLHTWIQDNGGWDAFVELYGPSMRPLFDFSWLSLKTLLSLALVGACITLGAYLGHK

In the case of `Cc1ncsc1-c1ccc([C@H](C)NC(=O)[C@@H]2C[C@@H](O)CN2C(=O)[C@@H](NC(=O)CCCCCCC(=O)N2CCN(C[C@@]3(C)CCC(c4ccc(Cl)cc4)=C(CN4CCN(c5ccc(C(=O)NS(=O)(=O)c6ccc(N[C@H](CCN7CCOCC7)CSc7ccccc7)c(S(=O)(=O)C(F)(F)F)c6)cc5)CC4)C3)CC2)C(C)(C)C)cc1` [753a], the “binary binding affinity to BCL-2 (in words)” value [1] is reported as “much weaker than that of the warhead ABT263”, the “Alpha signal (raw counts)” value ([1]; BCL-2 Rep-2, 0.00488281 uM) is reported as 457099 and 452255 and the “Alpha signal (raw counts)” value [1, 5] is reported as 11131 and 19293. The “Alpha signal (raw counts)” value [1, 6] was 23398 and 21436, the “Alpha signal (raw counts)” value [1, 7] was 28167 and 26661 and the “Alpha signal (raw counts)” value [1, 8] was 165828 and 146355. The “Alpha signal (raw counts)” value [1, 9] was 607122 and 550701, the “Alpha signal (raw counts)” value [1, 10] was 723572 and 761986 and the “Alpha signal (raw counts)” value [1, 11] was 723255 and 767572. For the same molecule, the “Alpha signal (raw counts)” value [1, 12] was 723831 and 708342.

For `Cc1ncsc1-c1ccc([C@H](C)NC(=O)[C@@H]2C[C@@H](O)CN2C(=O)[C@@H](NC(=O)CCCCCCC(=O)N2CCN(C[C@]3(C)CCC(c4ccc(Cl)cc4)=C(CN4CCN(c5ccc(C(=O)NS(=O)(=O)c6ccc(N[C@H](CCN7CCOCC7)CSc7ccccc7)c(S(=O)(=O)C(F)(F)F)c6)cc5)CC4)C3)CC2)C(C)(C)C)cc1` [753b], the “Luminescence (raw plate reading)” value ([2]; 2um (plate column 11)) was 42731 and 33855 and 41105 and 35447, the “Luminescence (raw plate reading)” value ([2]; 4um (plate column 12)) was 25069 and 21488 and 20344 and 20760 and the “cell viability normalised to control wells (mean of three replicates)” value [3, 13] was 101.835. The “cell viability normalised to control wells (single replicate)” value [3, 13] was 103.801 and 94.6965 and 107.009, the “cell viability normalised to control wells (mean of three replicates)” value [3, 14] was 93.0491 and the “cell viability normalised to control wells (single replicate)” value [3, 14] was 98.1647 and 87.1532 and 93.8295. The “cell viability normalised to control wells (mean of three replicates)” value [3, 15] was 95.159, the “cell viability normalised to control wells (single replicate)” value [3, 15] was 94.6965 and 88.7139 and 102.066 and the “cell viability normalised to control wells (mean of three replicates)” value [3, 16] was 93.078. The “cell viability normalised to control wells (single replicate)” value [3, 16] was 90.1012 and 81.2572 and 107.876, the “cell viability normalised to control wells (mean of three replicates)” value [3, 17] was 93.8295 and the “cell viability normalised to control wells (single replicate)” value [3, 17] was 79.8699 and 97.9913 and 103.627. For the same molecule, the “cell viability normalised to control wells (mean of three replicates)” value ([3]; MTS absorbance 490, Conc 1 uM) was 89.5809, the “cell viability normalised to control wells (single replicate)” value ([3]; MTS absorbance 490, Conc 1 uM) was 76.4884 and 93.6561 and 98.5983 and the “cell viability normalised to control wells (mean of three replicates)” value ([3]; MTS absorbance 490, Conc 3 uM) was 87.6734. The “cell viability normalised to control wells (single replicate)” value ([3]; MTS absorbance 490, Conc 3 uM) was 75.7081 and 83.5116 and 103.801, the “binary binding affinity to BCL-2 (in words)” value [1] was “much weaker than that of the warhead ABT263” and the “Alpha signal (raw counts)” value ([1]; BCL-2 Rep-2, 0.00488281 uM) was 394963 and 403008. For the same molecule, the “Alpha signal (raw counts)” value ([1]; BCL-2 Rep-2, plate row B, 5 uM) was 11331 and 13334, the “Alpha signal (raw counts)” value [1, 5] was 13467 and 22674 and the “Alpha signal (raw counts)” value [1, 6] was 16676 and 24219. For the same molecule, the “Alpha signal (raw counts)” value [1, 7] was 24600 and 21594, the “Alpha signal (raw counts)” value [1, 8] was 68045 and the “Alpha signal (raw counts)” value ([1]; BCL-2 Rep-2, plate row F, 0.0195312 uM, listed as 753B) was 74511. The “Alpha signal (raw counts)” value [1, 9] was 630958 and 595808, the “Alpha signal (raw counts)” value [1, 10] was 751084 and 777257 and the “Alpha signal (raw counts)” value [1, 11] was 760517 and 786817. For the same molecule, the “Alpha signal (raw counts)” value [1, 12] was 880286 and 989418, the “293T cell viability, MTS absorbance 490 as percent of untreated control, mean of three wells” value ([4]; 0.00137174 uM) was 105.831 and the “293T cell viability, MTS absorbance 490 as percent of untreated control, single replicate well” value ([4]; 0.00137174 uM) was 104.459 and 107.926 and 105.109. For the same molecule, the “293T cell viability, MTS absorbance 490 as percent of untreated control, mean of three wells” value ([4]; 0.00411523 uM) was 107.998, the “293T cell viability, MTS absorbance 490 as percent of untreated control, single replicate well” value ([4]; 0.00411523 uM) was 111.934 and 109.117 and 102.943 and the “293T cell viability, MTS absorbance 490 as percent of untreated control, mean of three wells” value ([4]; 0.037037 uM) was 108.72. The “293T cell viability, MTS absorbance 490 as percent of untreated control, single replicate well” value ([4]; 0.037037 uM) was 111.175 and 116.05 and 98.9348, the “293T cell viability, MTS absorbance 490 as percent of untreated control, mean of three wells” value ([4]; 0.111111 uM) was 112.8 and the “293T cell viability, MTS absorbance 490 as percent of untreated control, single replicate well” value ([4]; 0.111111 uM) was 120.383 and 115.183 and 102.834. The “293T cell viability, MTS absorbance 490 as percent of untreated control, mean of three wells” value ([4]; 0.333333 uM) was 109.37, the “293T cell viability, MTS absorbance 490 as percent of untreated control, single replicate well” value ([4]; 0.333333 uM) was 118.975 and 109.225 and 99.9097 and the “293T cell viability, MTS absorbance 490 as percent of untreated control, mean of three wells” value ([4]; 1 uM) was 114.606. The “293T cell viability, MTS absorbance 490 as percent of untreated control, single replicate well” value ([4]; 1 uM) was 117.133 and 117.566 and 109.117, the “293T cell viability, MTS absorbance 490 as percent of untreated control, mean of three wells” value ([4]; 3 uM) was 79.3284 and the “293T cell viability, MTS absorbance 490 as percent of untreated control, single replicate well” value ([4]; 3 uM) was 74.5622 and 86.911 and 76.512.
